{"source": "patent US9290474B2", "about": "“Methods for making and using novel semi-synthetic small molecules for the treatment parasitic disease” (The Regents of the University of California, priority 2011, dated 2016)", "tested_on": "T. brucei brucei", "assay": "Screening against T. brucei (antiparasitic activity)", "format": "cell-based, Trypanosoma brucei", "details": "initial screening"}
{"smiles": "CC1(C)C=CC(=O)[C@@]2(C)OOC3C[C@]12CCC3(O)CO", "note": "(stereo partly shown) [Merulin C, merulin C]", "values": [{"measurement": "activity against T. brucei brucei", "result": 0.8, "unit": "µM"}]}
